Experimental data reported in the NIST ThermoML archive (doi:10.1021/je500381c).

Assay: xn = mol fraction of the nth substance listed
Conditions: for mass density / viscosity: 100 kPa, Liquid; for mass density: Vibrating tube method; for surface tension liquid-gas: Drop volume

CC12CC3CC(C1)CC(C)(C3)C2 [1,3-dimethyladamantane] + CCCCCCCO
Conditions	mass density [kg/m3]	surface tension liquid-gas [mN/m]	viscosity [mPa·s]
293.15 K, x2 = 0	901.58	–	3.764
293.15 K, x2 = 0.1001	895.5	–	3.692
293.15 K, x2 = 0.199	889.11	–	3.788
293.15 K, x2 = 0.2998	882.35	–	3.972
293.15 K, x2 = 0.3997	875.32	–	4.181
293.15 K, x2 = 0.4997	867.82	–	4.522
293.15 K, x2 = 0.6002	859.93	–	4.92
293.15 K, x2 = 0.7	851.41	–	5.419
293.15 K, x2 = 0.7996	842.45	–	5.924
293.15 K, x2 = 0.8999	832.71	–	6.447
298.15 K, x2 = 0	898.04	27.88	3.345
298.15 K, x2 = 0.1001	891.87	27.82	3.271
298.15 K, x2 = 0.199	885.48	–	3.342
298.15 K, x2 = 0.1997	–	27.69	–
298.15 K, x2 = 0.2998	878.72	27.48	3.475
298.15 K, x2 = 0.3997	871.68	27.35	3.686
298.15 K, x2 = 0.4997	864.19	27.15	3.909
298.15 K, x2 = 0.6002	856.3	27.02	4.218
298.15 K, x2 = 0.7	847.82	26.79	4.611
298.15 K, x2 = 0.7996	838.88	26.56	5.028
298.15 K, x2 = 0.8999	829.21	26.36	5.454
303.15 K, x2 = 0	894.48	–	3.004
303.15 K, x2 = 0.1001	888.23	–	2.913
303.15 K, x2 = 0.199	881.84	–	2.963
303.15 K, x2 = 0.2998	875.06	–	3.066
303.15 K, x2 = 0.3997	868.01	–	3.238
303.15 K, x2 = 0.4997	860.52	–	3.414
303.15 K, x2 = 0.6002	852.65	–	3.657
303.15 K, x2 = 0.7	844.21	–	3.967
303.15 K, x2 = 0.7996	835.28	–	4.304
303.15 K, x2 = 0.8999	825.66	–	4.649
308.15 K, x2 = 0	890.92	–	2.711
308.15 K, x2 = 0.1001	884.58	–	2.609
308.15 K, x2 = 0.199	878.15	–	2.642
308.15 K, x2 = 0.2998	871.37	–	2.721
308.15 K, x2 = 0.3997	864.33	–	2.862
308.15 K, x2 = 0.4997	856.84	–	3
308.15 K, x2 = 0.6002	848.97	–	3.194
308.15 K, x2 = 0.7	840.56	–	3.439
308.15 K, x2 = 0.7996	831.66	–	3.711
308.15 K, x2 = 0.8999	822.07	–	3.992
313.15 K, x2 = 0	887.35	–	2.458
313.15 K, x2 = 0.1001	880.92	–	2.347
313.15 K, x2 = 0.199	874.46	–	2.366
313.15 K, x2 = 0.2998	867.67	–	2.427
313.15 K, x2 = 0.3997	860.62	–	2.542
313.15 K, x2 = 0.4997	853.13	–	2.653
313.15 K, x2 = 0.6002	845.27	–	2.807
313.15 K, x2 = 0.7	836.88	–	3.001
313.15 K, x2 = 0.7996	828.01	–	3.22
313.15 K, x2 = 0.8999	818.46	–	3.45
318.15 K, x2 = 0	883.77	–	2.237
318.15 K, x2 = 0.1001	877.24	–	2.121
318.15 K, x2 = 0.199	870.75	–	2.129
318.15 K, x2 = 0.2998	863.95	–	2.175
318.15 K, x2 = 0.3997	856.89	–	2.269
318.15 K, x2 = 0.4997	849.4	–	2.359
318.15 K, x2 = 0.6002	841.54	–	2.481
318.15 K, x2 = 0.7	833.18	–	2.636
318.15 K, x2 = 0.7996	824.33	–	2.813
318.15 K, x2 = 0.8999	814.8	–	3.002
323.15 K, x2 = 0	880.19	–	2.045
323.15 K, x2 = 0.1001	873.55	–	1.925
323.15 K, x2 = 0.199	867.02	–	1.925
323.15 K, x2 = 0.2998	860.2	–	1.958
323.15 K, x2 = 0.3997	853.14	–	2.035
323.15 K, x2 = 0.4997	845.65	–	2.107
323.15 K, x2 = 0.6002	837.79	–	2.205
323.15 K, x2 = 0.7	829.46	–	2.329
323.15 K, x2 = 0.7996	820.62	–	2.472
323.15 K, x2 = 0.8999	811.12	–	2.626
328.15 K, x2 = 0	876.6	–	1.876
328.15 K, x2 = 0.1001	869.84	–	1.754
328.15 K, x2 = 0.199	863.27	–	1.745
328.15 K, x2 = 0.2998	856.43	–	1.769
328.15 K, x2 = 0.3997	849.36	–	1.833
328.15 K, x2 = 0.4997	841.86	–	1.891
328.15 K, x2 = 0.6002	834.01	–	1.97
328.15 K, x2 = 0.7	825.68	–	2.069
328.15 K, x2 = 0.7996	816.87	–	2.184
328.15 K, x2 = 0.8999	807.4	–	2.311
333.15 K, x2 = 0	873.01	–	1.728
333.15 K, x2 = 0.1001	866.11	–	1.603
333.15 K, x2 = 0.199	859.5	–	1.589
333.15 K, x2 = 0.2998	852.63	–	1.605
333.15 K, x2 = 0.3997	845.56	–	1.658
333.15 K, x2 = 0.4997	838.05	–	1.704
333.15 K, x2 = 0.6002	830.19	–	1.767
333.15 K, x2 = 0.7	821.88	–	1.847
333.15 K, x2 = 0.7996	813.08	–	1.938
333.15 K, x2 = 0.8999	803.64	–	2.044

CC12CC3CC(C)(C1)CC(C)(C3)C2 [1,3,5-trimethyladamantane] + CCCCCCCO
Conditions	mass density [kg/m3]	surface tension liquid-gas [mN/m]	viscosity [mPa·s]
293.15 K, x2 = 0	887.48	–	2.601
293.15 K, x2 = 0.1001	882.47	–	2.626
293.15 K, x2 = 0.2001	877.46	–	2.775
293.15 K, x2 = 0.3002	872.11	–	2.97
293.15 K, x2 = 0.4004	866.49	–	3.242
293.15 K, x2 = 0.5001	860.53	–	3.5
293.15 K, x2 = 0.6002	854.11	–	4.051
293.15 K, x2 = 0.7001	847.23	–	4.645
293.15 K, x2 = 0.7999	839.77	–	5.371
293.15 K, x2 = 0.9002	831.44	–	6.221
298.15 K, x2 = 0	883.99	26.17	2.338
298.15 K, x2 = 0.1001	878.9	26.19	2.349
298.15 K, x2 = 0.2001	873.88	26.22	2.469
298.15 K, x2 = 0.3002	868.52	26.26	2.632
298.15 K, x2 = 0.4004	862.91	26.32	2.854
298.15 K, x2 = 0.5001	856.94	26.34	3.131
298.15 K, x2 = 0.6002	850.53	26.36	3.51
298.15 K, x2 = 0.7001	843.66	26.32	3.99
298.15 K, x2 = 0.7999	836.22	26.3	4.567
298.15 K, x2 = 0.9002	827.93	26.29	5.229
303.15 K, x2 = 0	880.47	–	2.118
303.15 K, x2 = 0.1001	875.31	–	2.114
303.15 K, x2 = 0.2001	870.27	–	2.212
303.15 K, x2 = 0.3002	864.91	–	2.35
303.15 K, x2 = 0.4004	859.29	–	2.533
303.15 K, x2 = 0.5001	853.32	–	2.758
303.15 K, x2 = 0.6002	846.91	–	3.066
303.15 K, x2 = 0.7001	840.05	–	3.457
303.15 K, x2 = 0.7999	832.63	–	3.924
303.15 K, x2 = 0.9002	824.38	–	4.464
308.15 K, x2 = 0	876.94	–	1.93
308.15 K, x2 = 0.1001	871.72	–	1.911
308.15 K, x2 = 0.2001	866.65	–	1.992
308.15 K, x2 = 0.3002	861.27	–	2.108
308.15 K, x2 = 0.4004	855.65	–	2.261
308.15 K, x2 = 0.5001	849.68	–	2.444
308.15 K, x2 = 0.6002	843.28	–	2.699
308.15 K, x2 = 0.7001	836.41	–	3.015
308.15 K, x2 = 0.7999	829.02	–	3.396
308.15 K, x2 = 0.9002	820.8	–	3.841
313.15 K, x2 = 0	873.4	–	1.765
313.15 K, x2 = 0.1001	868.1	–	1.737
313.15 K, x2 = 0.2001	863	–	1.802
313.15 K, x2 = 0.3002	857.62	–	1.899
313.15 K, x2 = 0.4004	851.98	–	2.027
313.15 K, x2 = 0.5001	846.01	–	2.178
313.15 K, x2 = 0.6002	839.62	–	2.387
313.15 K, x2 = 0.7001	832.76	–	2.648
313.15 K, x2 = 0.7999	825.37	–	2.957
313.15 K, x2 = 0.9002	817.19	–	3.327
318.15 K, x2 = 0	869.86	–	1.621
318.15 K, x2 = 0.1001	864.47	–	1.585
318.15 K, x2 = 0.2001	859.34	–	1.636
318.15 K, x2 = 0.3002	853.95	–	1.719
318.15 K, x2 = 0.4004	848.3	–	1.826
318.15 K, x2 = 0.5001	842.32	–	1.952
318.15 K, x2 = 0.6002	835.93	–	2.124
318.15 K, x2 = 0.7001	829.07	–	2.338
318.15 K, x2 = 0.7999	821.7	–	2.593
318.15 K, x2 = 0.9002	813.54	–	2.899
323.15 K, x2 = 0	866.31	–	1.494
323.15 K, x2 = 0.1001	860.82	–	1.452
323.15 K, x2 = 0.2001	855.66	–	1.494
323.15 K, x2 = 0.3002	850.25	–	1.561
323.15 K, x2 = 0.4004	844.59	–	1.652
323.15 K, x2 = 0.5001	838.61	–	1.756
323.15 K, x2 = 0.6002	832.21	–	1.899
323.15 K, x2 = 0.7001	825.35	–	2.049
323.15 K, x2 = 0.7999	817.99	–	2.287
323.15 K, x2 = 0.9002	809.87	–	2.541
328.15 K, x2 = 0	862.76	–	1.384
328.15 K, x2 = 0.1001	857.16	–	1.335
328.15 K, x2 = 0.2001	851.96	–	1.368
328.15 K, x2 = 0.3002	846.53	–	1.424
328.15 K, x2 = 0.4004	840.86	–	1.5
328.15 K, x2 = 0.5001	834.86	–	1.587
328.15 K, x2 = 0.6002	828.46	–	1.707
328.15 K, x2 = 0.7001	821.6	–	1.855
328.15 K, x2 = 0.7999	814.26	–	2.029
328.15 K, x2 = 0.9002	806.15	–	2.239
333.15 K, x2 = 0	859.2	–	1.284
333.15 K, x2 = 0.1001	853.48	–	1.232
333.15 K, x2 = 0.2001	848.24	–	1.257
333.15 K, x2 = 0.3002	842.78	–	1.303
333.15 K, x2 = 0.4004	837.09	–	1.367
333.15 K, x2 = 0.5001	831.09	–	1.44
333.15 K, x2 = 0.6002	824.68	–	1.54
333.15 K, x2 = 0.7001	817.82	–	1.663
333.15 K, x2 = 0.7999	810.48	–	1.808
333.15 K, x2 = 0.9002	802.4	–	1.984
